System: TEAD-dependent transcription
Experiment: TEAD-dependent transcription cell-based reporter assay (MSTO-211H+12XGTIIC luciferase)
Parameters: species or system human
Settings: Homo sapiens; MSTO-211H+12XGTIIC cell line, luciferase signal normalized to cell viability, 24 hours compound incubation; read-out: MSTO-211H GMean IC50 (uM) Cell Assay Reporter Cell Variant: TEAD
Outline: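 MSTO-211H mesothelioma cells stably carrying a 12xGTIIC TEAD-response-element luciferase reporter, treated with serial compound dilutions for 24 h at 37 °C. Luminescence normalized to CellTiter-Fluor viability signal; % inhibition versus DMSO and 20 μM K-975 controls, IC50 by nonlinear regression.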

Structure (SMILES) | IC50 [µM]
O=C(Cc1cc[nH]n1)N1CCc2ccc(Oc3ccc(C(F)(F)F)cc3)cc2C1 [P-0133, 2-(1H-pyrazol-3-yl)-1-(7-(4-(trifluoromethyl)-phenoxy)-3,4-dihydroiso-quinolin-2(1H)-yl)ethan-1-one] | 0.001 to 10
Cc1nnc(CCC(=O)N2CCc3ccc(Oc4ccc(C(F)(F)F)cc4)cc3C2)o1 [P-0063, 3-(5-methyl-1,3,4-oxadi-azol-2-yl)-1-(7-(4-(trifluoromethyl)phen-oxy)-3,4-dihydroisoquin-olin-2(1H)-yl)propan-1-one] | 0.001 to 10
O=C(Cc1c[nH]cn1)N1CCc2ccc(Oc3ccc(C(F)(F)F)cc3)cc2C1 [P-0164, 2-(1H-imidazol-4-yl)-1-(7-(4-(trifluoromethyl)-phenoxy)-3,4-dihydroiso-quinolin-2(1H)-yl)ethan-1-one] | 0.001 to 10
O=C(NC1CCCC1)N1CCc2c(cccc2Oc2ccc(C(F)(F)F)cc2)C1 [P-0232, N-cyclopentyl-5-(4-(trifluoromethyl)phen-oxy)-3,4-dihydroisoquin-oline-2(1H)-carboxamide] | 0.001 to 10
O=C1CCC(CC(=O)N2CCc3ccc(Oc4ccc(C(F)(F)F)cc4)cc3C2)CN1 (stereo not drawn) [P-0132, 5-(2-oxo-2-(7-(4-(trifluoromethyl)phen-oxy)-3,4-dihydroisoquin-olin-2(1H)-yl)ethyl)piper-idin-2-one] | 0.001 to 10
CNC(=O)c1cccc(N2CCc3ccc(Oc4ccc(C(F)(F)F)cc4)cc3C2)n1 [P-0229, N-methyl-6-(7-(4-(trifluoromethyl)phen-oxy)-3,4-dihydroisoquin-olin-2(1H)-yl)picolin-amide] | 0.001 to 10
O=C(Cc1n[nH]c(=O)[nH]1)N1CCc2ccc(Oc3ccc(C(F)(F)F)c(F)c3)cc2C1 [P-0160, 5-(2-(7-(3-fluoro-4-(trifluoromethyl)phen-oxy)-3,4-dihydroisoquin-olin-2(1H)-yl)-2-oxoeth-yl)-2,4-dihydro-3H-1,2,4-triazol-3-one] | 0.001 to 10
O=C1NC(=O)C(CC(=O)N2CCc3ccc(Oc4ccc(C(F)(F)F)cc4)cc3C2)N1 (stereo not drawn) [P-0083, 5-(2-oxo-2-(7-(4-(trifluoromethyl)phen-oxy)-3,4-dihydroisoquin-olin-2(1H)-yl)ethyl)imid-azolidine-2,4-dione] | 0.001 to 10
CC(=O)N1CC=C(c2c(Oc3ccc(C(F)(F)F)cc3)ccc3c2CN(C(=O)CCS(C)(=O)=O)CC3)CC1 [P-0214, 1-(8-(1-acetyl-1,2,3,6-tetrahydropyridin-4-yl)-7-(4-(trifluoromethyl)-phenoxy)-3,4-dihydroiso-quinolin-2(1H)-yl)-3-(methylsulfonyl)propan-1-one] | 10 to 100
O=C(Nc1ccccc1)N1CCc2ccc(Oc3ccc(C(F)(F)F)cc3)cc2C1 [P-0022, N-phenyl-7-(4-(trifluoro-methyl)phenoxy)-3,4-dihydroisoquinoline-2(1H)-carboxamide] | 0.001 to 10
CN(C)S(=O)(=O)N1CCc2ccc(Oc3ccc(C(F)(F)F)cc3)cc2C1 [P-0024, N,N-dimethyl-7-(4-(trifluoromethyl)phen-oxy)-3,4-dihydroiso-quinoline-2(1H)-sulfon-amide] | 0.001 to 10
CNC(=O)c1cncc(N2CCc3ccc(Oc4ccc(C(F)(F)F)cc4)cc3C2)n1 [P-0231, N-methyl-6-(7-(4-(trifluoromethyl)phen-oxy)-3,4-dihydroisoquin-olin-2(1H)-yl)pyrazine-2-carboxamide] | 0.001 to 10
O=C(CC1CS(=O)(=O)C1)N1CCc2ccc(Oc3ccc(C(F)(F)F)cc3)cc2C1 [P-0072, 2-(1,1-dioxidothietan-3-yl)-1-(7-(4-(trifluoro-methyl)phenoxy)-3,4-dihydroisoquinolin-2(1H)-yl)ethan-1-one] | 0.001 to 10
CN1C(=O)SC(CC(=O)N2CCc3ccc(Oc4ccc(C(F)(F)F)c(F)c4)cc3C2)C1=O (stereo not drawn) [P-0138, 5-(2-(7-(3-fluoro-4-(trifluoromethyl)phen-oxy)-3,4-dihydroisoquin-olin-2(1H)-yl)-2-oxoeth-yl)-3-methylthiazolidine-2,4-dione] | 0.001 to 10
CN1CCC(C(=O)N2CCc3ccc(Oc4ccc(C(F)(F)F)c(F)c4)cc3C2)CC1 [P-0109, (7-(3-fluoro-4-(trifluoro-methyl)phenoxy)-3,4-dihydroisoquinolin-2(1H)-yl)(1-methylpiper-idin-4-yl)methanone] | 0.001 to 10
CCN(CC)C(=O)N1CCc2ccc(Oc3ccc(C(F)(F)F)cc3)cc2C1 [P-0035, N,N-diethyl-7-(4-(trifluoromethyl)phen-oxy)-3,4-dihydroisoquin-oline-2(1H)-carboxamide] | 0.001 to 10
O=C(CCn1cncn1)N1CCc2ccc(Oc3ccc(C(F)(F)F)c(F)c3)cc2C1 [P-0153, 1-(7-(3-fluoro-4-(trifluoromethyl)phen-oxy)-3,4-dihydroisoquin-olin-2(1H)-yl)-3-(1H-1,2,4-triazol-1-yl)propan-1-one] | 0.001 to 10
O=C(C1CNC1)N1CCc2ccc(Oc3ccc(C(F)(F)F)c(F)c3)cc2C1 [P-0144, azetidin-3-yl(7-(3-fluoro-4-(trifluoromethyl)phen-oxy)-3,4-dihydroisoquin-olin-2(1H)-yl)methanone] | 0.001 to 10

Structure (SMILES) | IC50 [µM]
O=C(Cc1cnc[nH]1)N1CCc2c(cccc2-c2ccc(C(F)(F)F)cc2)C1 [P-0275, 2-(1H-imidazol-5-yl)-1-(5-(4-(trifluoromethyl)-phenyl)-3,4-dihydroiso-quinolin-2(1H)-yl)ethan-1-one] | 0.001 to 10
COC(=O)CCS(=O)(=O)N1CCc2ccc(Oc3ccc(C(F)(F)F)cc3)cc2C1 [P-0050, methyl 3-((7-(4-(trifluoro-methyl)phenoxy)-3,4-dihydroisoquinolin-2(1H)-yl)sulfonyl)pro-panoate] | 0.001 to 10
CC(C)NS(=O)(=O)N1CCc2ccc(Oc3ccc(C(F)(F)F)cc3)cc2C1 [P-0020, N-isopropyl-7-(4-(trifluoromethyl)phen-oxy)-3,4-dihydroiso-quinoline-2(1H)-sulfon-amide] | 0.001 to 10
CNCCC(=O)N1CCc2ccc(Oc3ccc(C(F)(F)F)cc3)cc2C1 [P-0068, 3-(methylamino)-1-(7-(4-(trifluoromethyl)phen-oxy)-3,4-dihydroisoquin-olin-2(1H)-yl)propan-1-one] | 0.001 to 10
C=CS(=O)(=O)N1CC(C(=O)N2CCc3ccc(Oc4ccc(C(F)(F)F)c(F)c4)cc3C2)C1 [P-0157, (7-(3-fluoro-4-(trifluoromethyl)phenoxy)-3,4-dihydroisoquinolin-2(1H)-yl)(1-(vinylsulfonyl)azetidin-3-yl)methanone] | 0.001 to 10
COCC(C)NC(=O)N1CCc2c(cccc2Oc2ccc(C(F)(F)F)cc2)C1 (stereo not drawn) [P-0266, N-(1-methoxypropan-2-yl)-5-(4-(trifluorometh-yl)phenoxy)-3,4-dihydro-isoquinoline-2(1H)-carboxamide] | 0.001 to 10
CCC(=O)N1CCc2ccc(Oc3ccc(C(F)(F)F)cc3)cc2C1 [P-0014, 1-(7-(4-(trifluorometh-yl)phenoxy)-3,4-dihydroisoquinolin-2(1H)-yl)propan-1-one] | 0.001 to 10
CN(C)C(N1CCc2ccc(Oc3ccc(C(F)(F)F)cc3)cc2C1)=[N+](C)C [P-0156, N-((dimethylamino)(7-(4-(trifluoromethyl)phen-oxy)-3,4-dihydroisoquin-olin-2(1H)-yl)methylene)-N-methylmethanaminium] | 0.001 to 10
CCNC(=O)N1CCc2ccc(Oc3ccc(C(F)(F)F)cc3)cc2C1 [P-0003, N-ethyl-7-(4-(trifluoro-methyl)phenoxy)-3,4-dihydroisoquinoline-2(1H)-carboxamide] | 0.001 to 10
CNS(=O)(=O)N1CCc2ccc(Oc3ccc(C(F)(F)F)cc3)cc2C1 [P-0012, N-methyl-7-(4-(trifluoro-methyl)phenoxy)-3,4-dihydroisoquinoline-2(1H)-sulfonamide] | 0.001 to 10
CS(=O)(=O)c1ccc(C(=O)N2CCc3ccc(Oc4ccc(C(F)(F)F)cc4)cc3C2)s1 [P-0084, (5-(methylsulfonyl)thio-phen-2-yl)(7-(4-(trifluoro-methyl)phenoxy)-3,4-dihydroisoquinolin-2(1H)-yl)methanone] | 0.001 to 10
O=S(=O)(C1CCCC1)N1CCc2c(cccc2Oc2ccc(C(F)(F)F)cc2)C1 [P-0236, 2-(cyclopentylsulfonyl)-5-(4-(trifluoromethyl)-phenoxy)-1,2,3,4-tetra-hydroisoquinoline] | 0.001 to 10
C=CC(=O)N1CCC(C2c3cc(Oc4ccc(C(F)(F)F)cc4)ccc3CCN2C(=O)CCS(C)(=O)=O)C1 (single isomer, unassigned) [P-0217, 1-(3-(2-(3-(methylsulfonyl)propanoyl)-7-(4-(trifluoromethyl)phenoxy)-1,2,3,4-tetrahydroisoquinolin-1-yl)pyrrolidin-1-yl)prop-2-en-1-one] | 0.001 to 10
N#Cc1nc(N2CCc3ccc(Oc4ccc(C(F)(F)F)cc4)cc3C2)cs1 [P-0134, 4-(7-(4-(trifluorometh-yl)phenoxy)-3,4-dihydro-isoquinolin-2(1H)-yl)thi-azole-2-carbonitrile] | 0.001 to 10
CS(=O)(=O)CCCC(=O)N1CCc2ccc(Oc3ccc(C(F)(F)F)cc3)cc2C1 [P-0052, 4-(methylsulfonyl)-1-(7-(4-(trifluoromethyl)phen-oxy)-3,4-dihydroisoquin-olin-2(1H)-yl)butan-1-one] | 0.001 to 10
CCNS(=O)(=O)N1CCc2ccc(Oc3ccc(C(F)(F)F)cc3)cc2C1 [P-0017, N-Ethyl-7-(4-(trifluoromethyl)phenoxy)-3,4-dihydroisoquinoline-2(1H)-sulfonamide] | 0.001 to 10
C=CC(=O)N1CC(C(=O)N2CCc3ccc(Oc4ccc(C(F)(F)F)c(F)c4)cc3C2)C1 [P-0118, 1-(3-(7-(3-fluoro-4-(trifluoromethyl)phen-oxy)-1,2,3,4-tetrahydro-isoquinoline-2-carbon-yl)azetidin-1-yl)prop-2-en-1-one] | 0.001 to 10
O=S(=O)(N1CCCC1)N1CCc2ccc(Oc3ccc(C(F)(F)F)cc3)cc2C1 [P-0030, 2-(pyrrolidin-1-ylsulfon-yl)-7-(4-(trifluorometh-yl)phenoxy)-1,2,3,4-tetrahydroisoquinoline] | 0.001 to 10
